# Patent US20210278408A1, “METHODS OF TREATMENT OF CANCER WITH SUBSTITUTED PYRROLE AND PYRAZOLE COMPOUNDS AND DIAGNOSIS OF CANCERS SUSCEPTIBLE TO TREATMENT WITH SUBSTITUTED PYRROLE AND PYRAZOLE COMPOUNDS” (Bantam Pharmaceutical, LLC, priority 2018, published 2021)
# Where two headings read alike, the source gives them in different places.
# Test system: 407 cancer cell lines
# Test: Cell viability of cancer cell lines (IC50), CellTiter-Glo Viability Assay, 96 h
# Type: cell-based
# Details: Homo sapiens, read-out: Absolute IC50
# Method: Viability was determined by using the 50% inhibitory concentration (IC50) as determined with the CellTiter-Glo® Viability Assay (Promega).
# Experiments were initiated by first thawing and equilibrating the CellTiter-Glo® Buffer to room temperature. The lyophilized CellTiter-Glo® Substrate was also equilibrated to room temperature. The lyophilized substrate was reconstituted with the CellTiter-Glo® buffer to form the CellTiter-Glo® Reagent.
# Cells were harvested during the logarithmic growth period, counted, and the cell concentration adjusted to 4.44×10^4 cells/mL using culture medium.
# Cells were allowed to grow overnight and the following day, the TO reading was obtained by adding 10 μL culture medium to each well of Plate A. The plate was allowed to equilibrate at room temperature for thirty minutes, after which 50 μL CellTiter-Glo® reagent was added to each well. The contents were mixed for 5 min on an orbital shaker to induce cell lysis. Plates were incubated for 20 minutes to stabilize the luminescent signal and the TO luminescence recorded.
# Test plate B was incubated for 96 h in the humidified incubator at 37° C. with 5% CO2.
# Following the incubation, the plate was equilibrated at room temperature for thirty minutes. CellTiter-Glo® (50 μL) was added to each well of the plate and contents mixed for five minutes on an orbital shaker to induce cell lysis. The luminescent signal was allowed to stabilize at room temperature for 20 minutes and the luminescence recorded.
# IC50 (EC50) was calculated using a dose-response curve, fitted using a nonlinear regression model with a sigmoidal dose response. Survival rate was calculated using the formula:
# The Surviving rate (%)=(LumTest article−LumMedium control)/(LumNon-treated−LumMedium control)×100%.
# Absolute IC50 (EC50) was calculated according to the dose-response curve generated by the statistical software (GraphPad Prism 5.0).
structure (smiles),measurement,setting,value
"Cc1nn(-c2nc(-c3ccc(C(F)(F)F)cc3)c(SC(C)C)s2)c(C(=O)O)c1-c1cccc(F)c1 [Compound A197, 4-(3-fluorophenyl)-1-(5-(isopropylthio)-4-(4-(trifluoromethyl)phenyl)thiazol-2-yl)-3-methyl-1H-pyrazole-5-carboxylic acid]",IC50,"RS4-11, RS4;11",0.69 µM
same,IC50,"RT112/84, RT112/84",12.5 µM
same,IC50,"RT-4, 96 h, RT4 cells, 96 h",0.83 µM
same,IC50,"Raji, 96 h, Raji cells, 96 h",0.45 µM
same,IC50,"Ramos, 96 h, Ramos cells, 96 h",0.76 µM
same,IC50,"SAOS-2, Saos-2",0.82 µM
same,IC50,"SCC-4, 96 h",> 30 µM
same,IC50,"SCC-9, 96 h, SCC-9 cells, 96 h",> 30 µM
same,IC50,"SCC-15, 96 h, SCC-15 cells, 96 h",> 30 µM
same,IC50,"SCC-25, 96 h, SCC-25 cells, 96 h",> 30 µM
same,IC50,"SF-126, 96 h, SF-126 cells, 96 h",> 30 µM
same,IC50,"SF-268, 96 h, SF268 cells, 96 h",> 30 µM
same,IC50,SH-SY5Y,> 30 µM
same,IC50,"SJSA-1, SJSA-1",> 30 µM
same,IC50,"SK-BR-3, SK-BR-3",29.6 µM
same,IC50,"SK-CO-1, 96 h, SK-CO-1 cells, 96 h",1.12 µM
same,IC50,"SK-HEP1, 96 h, SK-HEP-1 cells, 96 h",> 30 µM
same,IC50,"SK-LU-1, 96 h, SK-LU-1 cells, 96 h",1.05 µM
same,IC50,"SK-MEL-5, 96 h",> 30 µM
same,IC50,"SK-MEL-28, 96 h",> 30 µM
same,IC50,"SK-MES-1, SK-MES-1",1.21 µM
same,IC50,"SK-N-FI, 96 h, SK-N-FI cells, 96 h",1.19 µM
same,IC50,SK-N-SH,> 30 µM
same,IC50,"SK-NEP-1, 96 h, SK-NEP-1 cells, 96 h",1.06 µM
same,IC50,"SK-OV-3, 96 h, SK-OV-3 cells, 96 h",> 30 µM
same,IC50,"SK-UT-1, 96 h, SK-UT-1 cells, 96 h",> 30 µM
same,IC50,"SNU1, 96 h, SNU-1 cells, 96 h",10.7 µM
same,IC50,"SNU-5, 96 h",1.83 µM
same,IC50,"SNU-354, SNU-354",> 30 µM
same,IC50,"SNU-387, SNU-387",> 30 µM
same,IC50,"SNU-398, SNU-398",0.22 µM
same,IC50,"SNU-423, 96 h, SNU-423 cells, 96 h",> 30 µM
same,IC50,"SNU-449, SNU-449",24.3 µM
same,IC50,"SNU-475, 96 h, SNU-475 cells, 96 h",2.51 µM
same,IC50,"SNU-638, 96 h, SNU-638 cells, 96 h",> 30 µM
same,IC50,"ST486, 96 h, ST486 cells, 96 h",0.22 µM
same,IC50,"SU-DHL-1, SU-DHL-1",0.33 µM
same,IC50,"SU-DHL-4, SU-DHL-4",1.07 µM
same,IC50,"SU-DHL-5, 96 h, SU-DHL-5 cells, 96 h",0.42 µM
same,IC50,"SU-DHL-6, 96 h, SU-DHL-6 cells, 96 h",1.05 µM
same,IC50,"SU-DHL-8, SU-DHL-8",0.75 µM
same,IC50,"SUM-159-PT, SUM159PT",17.8 µM
same,IC50,"SUP-B15, SUP-B15",1.22 µM
same,IC50,"SW13, SW-13",0.35 µM
same,IC50,"SW48, 96 h, SW48 cells, 96 h",> 30 µM
same,IC50,"SW480, SW480",> 30 µM
same,IC50,"SW626, 96 h, SW626 cells, 96 h",> 30 µM
same,IC50,"SW684, 96 h, SW684 cells, 96 h",> 30 µM
same,IC50,"SW756, 96 h, SW756 cells, 96 h",28.4 µM
same,IC50,"SW780, 96 h, SW780 cells, 96 h",22.6 µM
same,IC50,"SW837, 96 h, SW837 cells, 96 h",> 30 µM
same,IC50,"SW948, 96 h, SW948 cells, 96 h",> 30 µM
same,IC50,"SW982, 96 h, SW982 cells, 96 h",> 30 µM
same,IC50,"SW 1116, 96 h, SW1116 cells, 96 h",> 30 µM
same,IC50,"SW1417, 96 h, SW1417 cells, 96 h",> 30 µM
same,IC50,"SW1990, SW1990",18.1 µM
same,IC50,"SiHa, 96 h, SiHa cells, 96 h",> 30 µM
same,IC50,T47D,> 30 µM
same,IC50,"T84, T84",> 30 µM
same,IC50,"T-24, 96 h, T24 cells, 96 h",> 30 µM
same,IC50,"TE-1, TE-1",9.77 µM
same,IC50,"TF-1, TF-1",> 30 µM
same,IC50,"THP-1, 96 h, THP-1 cells, 96 h",0.21 µM
